Assay results reported in patent US4188378A, “Anticancer and antiviral activity of 9-β-D-arabinofuranosyl-2-fluoroadenine” (The United States of America as represented by the …, priority 1978, dated 1980).

System: L1210 cells
Experiment: Intracellular 2-F-AraATP levels in L1210 cells of treated mice
Type: in vivo
Conditions: for level of F-AraATP in acid-soluble extracts (HPLC): L1210 cells, 80 mg/kg
Excerpt: It has been noted that the antitumor activity of the parent compound, 9-β-D-arabinofuranosyladenine (AraA), is enhanced by inhibition of adenosine deaminase and inhibition of DNA synthesis in tumor cells by AraA also is enhanced by concurrent inhibition of adenosine deaminase. […] This observation that 2-fluoroadenosine is not such a substrate for adenosine deaminase led to the synthesis of 9-β-D-arabinofuranosyl-2-fluoroadenine (2-F-AraA). […] The intracellular concentration of 2-F-AraATP in L1210 cells was 45, 156 and 220 nanomoles per 10^9 cells three hours after intraperitoneal treatment with 80, 150 and 400 mg/kg of 2-F-AraA.
Relative to activity against leukemia and antiviral activity, the following summation was found: Levels of F-AraATP in acid-soluble extracts prepared from L1210 and P388 leukemia cells in mice treated with 2-F-AraA (80 mg/kg) were determined by HPLC. […] Inhibition of DNA synthesis by 2-F-AraA (80 mg/kg) in L1210 and P388 leukemia cells in vivo was pronounced for 7 hours after treatment. […] 2-F-AraA was effective against P388 leukemia; % increase in median life span of mice treated with 80 and 52 mg/kg (q3hrsx8; days 1,5,9 after implant of 10^6 cells) was 170% and 150%.

Nc1nc(F)nc2c1ncn2[C@@H]1O[C@H](CO)[C@@H](O)[C@@H]1O [2-F-AraA, 9-β-D-arabinofuranosyl-2-fluoroadenine]
2-F-AraATP in L1210 cells (9 and 18 hours after a single dose of 80 and 150 mg/kg): not found
2-F-AraATP in L1210 cells (18 hours after a dose of 400 mg/kg): significant levels were present
intracellular pools of 2-F-AraATP in L1210 cells (BDFl mice treated with 2-F-AraA alone, versus AraATP from AraA plus adenosine deaminase inhibitor): comparable
level of F-AraATP in acid-soluble extracts (HPLC) (1 to 6 hours after treatment): 30-50 nmoles/gm cells
level of F-AraATP in acid-soluble extracts (HPLC) (9 hours after treatment): none was detected
levels of F-AraATP attainable in leukemia L1210 cells in mice, compared with AraATP after AraA (after administration of 2-F-AraA): much higher
